Patent publication US9388176B2, “Method of treating conditiions with kinase inhibitors” (Allergan, Inc., priority 2012, dated 2016)

Each compound was assayed against PDGFRβ kinase, purified cytoplasmic domain PDGFR-β protein (Homo sapiens (Human), UniProt P09619) (assay: PDGFRβ Kinase Assay). Settings: 36 μM ATP, poly-Glu-Tyr (4:1) substrate, 60 minute incubation at 30° C., ELISA read at 492 nm.
Assay type: biochemical
Description: Biochemical PDGFRβ kinase assays were performed in 96 well microliter plates that were coated overnight with 75 μg of poly-Glu-Tyr (4:1) in 10 mM Phosphate Buffered Saline (PBS), pH 7.4. The coated plates were washed with 2 mls per well PBS+0.05% Tween-20 (PBS-T), blocked by incubation with PBS containing 1% BSA, then washed with 2 mls per well PBS-T prior to starting the reaction. Reactions were carried out in 100 μL reaction volumes containing 36 μM ATP in kinase buffer (50 mM Hepes buffer pH 7.4, 20 mM MgCl2, 0.1 mM MnCl2 and 0.2 mM Na3VO4). Test compounds were reconstituted in 100% DMSO and added to the reaction to give a final DMSO concentration of 5%. Reactions were initiated by the addition 20 ul per well of kinase buffer containing 200-300 ng purified cytoplasmic domain PDGFR-β protein (Millipore). Following a 60 minute incubation at 30° C., the reactions were washed 2 mls per well PBS-T. 100 μl of a monoclonal anti-phosphotyrosine antibody-peroxidase conjugate diluted 1:10,000 in PBS-T was added to the wells for 30 minutes. Following a 2 mls per well wash with PBS-Tween-20, 100 μl of 0-Phenylenediamine Dihydrochloride in phosphate-citrate buffer, containing urea hydrogen peroxide, was added to the wells for 7-10 minutes as a colorimetric substrate for the peroxidase. The reaction was terminated by the addition of 100 μl of 2.5N H2SO4 to each well and read using a microplate ELISA reader set at 492 nm. IC50 values for compound inhibition were calculated directly from graphs of optical density (arbitrary units) versus compound concentration following subtraction of blank values. […]

Chain of PDGFRβ kinase, purified cytoplasmic domain PDGFR-β protein (P09619 554-1106): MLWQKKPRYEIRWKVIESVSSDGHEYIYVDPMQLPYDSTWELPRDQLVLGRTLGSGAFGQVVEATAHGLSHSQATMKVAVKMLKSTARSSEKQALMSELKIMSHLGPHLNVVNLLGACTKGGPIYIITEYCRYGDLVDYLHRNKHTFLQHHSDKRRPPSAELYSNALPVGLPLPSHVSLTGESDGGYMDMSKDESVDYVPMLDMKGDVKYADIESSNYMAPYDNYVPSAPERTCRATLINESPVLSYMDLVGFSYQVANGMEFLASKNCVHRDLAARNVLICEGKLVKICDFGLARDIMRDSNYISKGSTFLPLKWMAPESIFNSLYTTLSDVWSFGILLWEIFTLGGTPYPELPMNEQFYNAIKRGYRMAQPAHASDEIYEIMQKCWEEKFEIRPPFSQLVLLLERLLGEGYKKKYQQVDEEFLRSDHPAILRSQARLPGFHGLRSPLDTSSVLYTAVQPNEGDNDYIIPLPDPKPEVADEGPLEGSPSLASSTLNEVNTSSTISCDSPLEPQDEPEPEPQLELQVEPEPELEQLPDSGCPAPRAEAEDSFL

Compound	IC50 [µM]
Nc1ncc2c(n1)CCN(c1cccc(C(=O)NC3CCCC3)c1)C2 [Example 19, 3-(2-amino-7,8-dihydropyrido[4,3-d]pyrimidin-6(5H)-yl)-N-cyclopentylbenzamide]	> 10
O=C(Nc1ccc(N2CCc3ccncc3C2)cc1)c1cccc(C(F)(F)F)c1 [Example 162, N-[4-(3,4-dihydro-2,7-naphthyridin-2(1H)-yl)phenyl]-3-(trifluoromethyl)benzamide]	> 10
CCCCNC(=O)c1cccc(N2CCc3nc(N)ncc3C2)c1 [Example 16, 3-(2-amino-7,8-dihydropyrido[4,3-d]pyrimidin-6(5H)-yl)-N-butylbenzamide]	> 10
Cc1cccc(NC(=O)c2cccc(N3CCc4nc(N)ncc4C3)n2)c1 [Example 37, 6-(2-amino-7,8-dihydropyrido[4,3-d]pyrimidin-6(5H)-yl)-N-(3-methylphenyl)pyridine-2-carboxamide]	> 10
COc1cccc(NC(=O)c2cccc(N3CCc4nc(N)ncc4C3)c2)c1 [Example 7, 3-(2-amino-7,8-dihydropyrido[4,3-d]pyrimidin-6(5H)-yl)-N-(3-methoxyphenyl)benzamide]	1.24
CN1CCC(Oc2ccc(NC(=O)c3cccc(N4CCc5nc(N)ncc5C4)c3)cc2)CC1 [Example 11, 3-(2-amino-7,8-dihydropyrido[4,3-d]pyrimidin-6(5H)-yl)-N-(4-((1-methylpiperidin-4-yl)oxy)phenyl)benzamide]	> 1
O=C(Nc1ccccc1)Nc1ccc(N2CCc3ccncc3C2)cc1 [Example 164, 1-[4-(3,4-dihydro-2,7-naphthyridin-2(1H)-yl)phenyl]-3-phenylurea]	> 10
Cc1ccc(NC(=O)Nc2ccc(N3CCc4ccncc4C3)cc2)cc1 [Example 165, 1-[4-(3,4-dihydro-2,7-naphthyridin-2(1H)-yl)phenyl]-3-(4-methylphenyl)urea]	> 1
CCN(CC)C(=O)c1cccc(N2CCc3nc(N)ncc3C2)c1 [Example 21, 3-(2-amino-7,8-dihydropyrido[4,3-d]pyrimidin-6(5H)-yl)-N,N-diethylbenzamide]	> 1

Now from value to compound:

IC50 [µM]	Compound
0.024	CC(C)c1ccc(NC(=O)c2cccc(N3CCc4nc(N)ncc4C3)c2)cc1 [Example 12, 3-(2-amino-7,8-dihydropyrido[4,3-d]pyrimidin-6(5H)-yl)-N-(4-isopropylphenyl)benzamide]
0.164	CC(C)(C)CCNC(=O)c1cccc(N2CCc3nc(N)ncc3C2)c1 [Example 20, 3-(2-amino-7,8-dihydropyrido[4,3-d]pyrimidin-6(5H)-yl)-N-(3,3-dimethylbutyl)benzamide]
0.052	CCc1cccc(NC(=O)c2cccc(N3CCc4nc(N)ncc4C3)c2)c1 [Example 9, 3-(2-amino-7,8-dihydropyrido[4,3-d]pyrimidin-6(5H)-yl)-N-(3-ethylphenyl)benzamide]
0.026	Nc1ncc2c(n1)CCN(c1cccc(C(=O)Nc3cccc(C(F)(F)F)c3)c1)C2 [Example 5, 3-(2-amino-7,8-dihydropyrido[4,3-d]pyrimidin-6(5H)-yl)-N-(3-(trifluoromethyl)phenyl)benzamide]
0.021	CC(C)c1cccc(NC(=O)c2cccc(N3CCc4nc(N)ncc4C3)c2)c1 [Example 2, 3-(2-amino-7,8-dihydropyrido[4,3-d]pyrimidin-6(5H)-yl)-N-(3-isopropylphenyl)benzamide]
0.134	CCc1ccc(NC(=O)c2cccc(N3CCc4nc(N)ncc4C3)c2)cc1 [Example 8, 3-(2-amino-7,8-dihydropyrido[4,3-d]pyrimidin-6(5H)-yl)-N-(4-ethylphenyl)benzamide]
0.032	CCCc1ccc(NC(=O)c2cccc(N3CCc4nc(N)ncc4C3)c2)cc1 [Example 10, 3-(2-amino-7,8-dihydropyrido[4,3-d]pyrimidin-6(5H)-yl)-N-(4-propylphenyl)benzamide]

These compounds were tested against VEGFR2 (KDR) kinase, purified cytoplasmic domain KDR protein (Homo sapiens (Human), UniProt P35968) (assay: VEGFR2 Kinase Assay). Settings: 2.7 μM ATP, poly-Glu-Tyr (4:1) substrate, 15 minute incubation at 30° C., ELISA read at 492 nm.
Assay type: biochemical
Description: Biochemical KDR kinase assays were performed in 96 well microliter plates that were coated overnight with 75 μg/well of poly-Glu-Tyr (4:1) in 10 mM Phosphate Buffered Saline (PBS), pH 7.4. The coated plates were washed with 2 mls per well PBS+0.05% Tween-20 (PBS-T), blocked by incubation with PBS containing 1% BSA, then washed with 2 mls per well PBS-T prior to starting the reaction. […] Reactions were initiated by the addition 20 ul per well of kinase buffer containing 200-300 ng purified cytoplasmic domain KDR protein (BPS Bioscience, San Diego, Calif.). Following a 15 minute incubation at 30° C., the reactions were washed 2 mls per well PBS-T. 100 μl of a monoclonal anti-phosphotyrosine antibody-peroxidase conjugate diluted 1:10,000 in PBS-T was added to the wells for 30 minutes. Following a 2 mls per well wash with PBS-Tween-20, 100 μl of O-Phenylenediamine Dihydrochloride in phosphate-citrate buffer, containing urea hydrogen peroxide, was added to the wells for 7-10 minutes as a colorimetric substrate for the peroxidase. […] IC50 values for compound inhibition were calculated directly from graphs of optical density (arbitrary units) versus compound concentration following subtraction of blank values.

Chain of VEGFR2 (KDR) kinase, purified cytoplasmic domain KDR protein (P35968 786-1356): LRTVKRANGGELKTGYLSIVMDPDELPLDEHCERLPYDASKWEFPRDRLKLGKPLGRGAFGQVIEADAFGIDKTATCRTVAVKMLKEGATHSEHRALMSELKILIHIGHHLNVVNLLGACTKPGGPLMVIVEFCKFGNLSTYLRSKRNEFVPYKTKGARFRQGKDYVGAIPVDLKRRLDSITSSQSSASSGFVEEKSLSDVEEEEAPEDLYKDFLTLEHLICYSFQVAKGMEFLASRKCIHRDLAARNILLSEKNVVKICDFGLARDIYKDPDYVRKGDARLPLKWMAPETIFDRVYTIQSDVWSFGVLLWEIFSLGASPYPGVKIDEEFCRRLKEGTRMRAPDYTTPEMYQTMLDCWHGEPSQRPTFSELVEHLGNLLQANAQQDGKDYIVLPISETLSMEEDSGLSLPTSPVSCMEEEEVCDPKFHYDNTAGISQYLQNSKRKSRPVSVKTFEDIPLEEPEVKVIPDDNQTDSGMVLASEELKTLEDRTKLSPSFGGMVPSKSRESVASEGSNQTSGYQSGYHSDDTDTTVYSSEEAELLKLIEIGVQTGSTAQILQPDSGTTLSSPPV

IC50 [µM]	Compound
> 1	CSc1ncc2c(n1)CCN(c1cc(C)cc(C(=O)Nc3cccc(C(C)C)c3)c1)C2 [Example 142, N-(3-isopropylphenyl)-3-methyl-5-[2-(methylthio)-7,8-dihydropyrido[4,3-d]pyrimidin-6(5H)-yl]benzamide]
> 1	CSc1ncc2c(n1)CCN(c1cc(C)cc(C(=O)Nc3cccc(C(F)(F)F)c3)c1)C2 [Example 140, 3-methyl-5-[2-(methylthio)-7,8-dihydropyrido[4,3-d]pyrimidin-6(5H)-yl]-N-[3-(trifluoromethyl)phenyl]benzamide]
> 1	Cc1ccc(NC(=O)Nc2ccc(N3CCc4ccncc4C3)cc2)cc1 [Example 165, 1-[4-(3,4-dihydro-2,7-naphthyridin-2(1H)-yl)phenyl]-3-(4-methylphenyl)urea]

Compound	IC50 [µM]
4-(2-Methylsulfanyl-5,7-dihydro-pyrrolo[3,4-d]pyrimidin-6-yl)-pyridine-2-carboxylic acid (3-trifluoromethyl-phenyl)-amide [Example 126]	> 10
